Source: US20250026848A1, “IDENTIFICATION OF PATHOGENIC IMMUNE CELL SUBSETS IN CHECKPOINT INHIBITOR-INDUCED MYOCARDITIS” (U.S. GOVERNMENT AS REPRESENTED BY THE DEPARTMENT OF …, priority 2021, published 2025)

Test system: ICI myocarditis
Assay: Longitudinal follow-up of one ICI myocarditis patient (MCE1) treated with glucocorticoids: cardiac biomarker troponin I
Assay type: in vivo, human
Details: one patient with MRI-confirmed ICI myocarditis; 60 mg/day from first day of diagnosis, four-week steroid taper
Description: In order to evaluate the time evolution of clonally-expanded T-cells in ICI myocarditis, we longitudinally analyzed PBMCs from one patient with MRI-confirmed myocarditis at early (t=0 days) and late (t=65 days) timepoints (FIG. 5A). This patient received glucocorticoids (60 mg/day of prednisone) for treatment of their myocarditis on the first day of their diagnosis (after blood collection) and underwent a successful four-week steroid taper with resolution of their cardiac biomarkers (troponin I, measured in ng/ml) by day 25. […] Due to the availability of early and late myocarditis blood samples, our study also provides new insight into the time-course of cellular and molecular changes that occur throughout the onset and resolution of ICI myocarditis. ICI myocarditis has a notoriously unpredictable time course and can occur with a median onset of 17-34 days after initiation of ICI therapy, although cases have been identified anywhere from 1 to 240 days from start of therapy (34,38-40). In our patient, we were able to collect blood at the time of diagnosis of the positive troponin I of 10 ng/ml (t=0) and track to day 65 after a full four-week course of glucocorticoids and resolution of clinical signs of myocarditis. […]

## C[C@]12C=CC(=O)C=C1CC[C@@H]1[C@@H]2C(=O)C[C@@]2(C)[C@H]1CC[C@]2(O)C(=O)CO [prednisone]
  resolution of cardiac biomarkers (troponin I): ≤ 25 days
